Reference: patent US8017612B2, “Piperazine compound and use thereof as a HCV polymerase inhibitor” (priority 2006, dated 2011)

Experiments:
[1] = molecular target: T1, HCV polymerase (NS5B) type 1b (Hepatitis C virus genotype 1b, UniProt P26663); assay: Assay of enzyme (HCV polymerase) inhibitory activity, type 1b enzyme; format: biochemical, HCV BK strain (type 1b); conditions: HCV polymerase inhibitory activity IC50, 1b, type 1b enzyme
T1 construct: a region encoding NS5B (J Virol 1991 March, 65(3), 1105-13, 544 amino acids after deletion of 47 amino acids on the C-terminal); 6xHis (C); made in house; host or cells: Escherichia coli
Summary of the method: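 NS5B from HCV BK strain (type 1b), C-terminal 47 aa deleted, C-terminal His6-tagged, E. coli-expressed, 0.5 μg/ml, with ~450 nt substrate RNA carrying the 3′ UTR (polyU, 3′X) at 5 μg/ml. Incubation 60 min at 25 °C with 50 μM ATP/GTP/CTP, 2 μM UTP plus [3H]UTP, pH 7.5 Tris.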

[2] = molecular target: T2, HCV polymerase (NS5B) type 1a (Hepatitis C virus genotype 1a, UniProt P26664); assay: Assay of enzyme (HCV polymerase) inhibitory activity, type 1a enzyme; format: biochemical, HCV type 1a (cloned from the blood of patients); conditions: HCV polymerase inhibitory activity IC50, 1a, type 1a enzyme
T2 construct: made in house; host or cells: Escherichia coli (by the 'similar method' of the 1b enzyme)
Summary of the method: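 Patient-derived type 1a NS5B (C-terminal 47-aa deletion, His-tagged, E. coli-expressed) at 1.5 μg/ml was reacted with 5 μg/ml 3′UTR-containing substrate RNA, 50 μM ATP/GTP/CTP, 2 μM UTP plus [3H]UTP, pH 7.5, 25° C for 60 min. TCA-precipitated RNA radioactivity was counted; IC50 from ± compound.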

| SMILES | IC50 [1] [nM] | IC50 [2] [nM] |
| --- | --- | --- |
| Nc1ncc2sc(N3CCN(S(=O)(=O)c4ccc(OC(F)(F)F)cc4)[C@@H](C(=O)NCc4ccc(OC(F)(F)F)cc4)C3)nc2n1 [Example 943, (R)-4-(5-amino-thiazolo[4,5-d]pyrimidin-2-yl)-1-(4-trifluoromethoxy-benzenesulfonyl)-piperazine-2-carboxylic acid 4-trifluoromethoxy-benzylamide] | < 100 | < 100 |
| COc1nncc2nc(N3CCN(S(=O)(=O)c4ccc(OC(F)(F)F)cc4)[C@@H](C(=O)NCc4ccc(OC(F)(F)F)cc4)C3)sc12 [Example 944, (R)-4-(7-methoxy-thiazolo[4,5-d]pyridazin-2-yl)-1-(4-trifluoromethoxy-benzenesulfonyl)-piperazine-2-carboxylic acid 4-trifluoromethoxy-benzylamide] | < 100 | < 100 |
| CN(C)c1ncc2sc(N3CCN(S(=O)(=O)c4ccc(OC(F)(F)F)cc4)[C@@H](C(=O)NCc4ccc(OC(F)(F)F)cc4)C3)nc2n1 [Example 945, (R)-4-(5-dimethylamino-thiazolo[4,5-d]pyrimidin-2-yl)-1-(4-trifluoromethoxy-benzenesulfonyl)-piperazine-2-carboxylic acid 4-trifluoromethoxy-benzylamide] | < 100 | < 100 |
| O=C(NCc1ccc(OC(F)(F)F)cc1)[C@H]1CN(c2nc3nc(NCCO)ncc3s2)CCN1S(=O)(=O)c1ccc(OC(F)(F)F)cc1 [Example 946, (R)-4-[5-(2-hydroxy-ethylamino)-thiazolo[4,5-d]pyrimidin-2-yl]-1-(4-trifluoromethoxy-benzenesulfonyl)-piperazine-2-carboxylic acid 4-trifluoromethoxy-benzylamide] | < 100 | < 100 |
| O=C(NCc1ccc(OC(F)(F)F)cc1)[C@H]1CN(c2nc3nc(Cl)ncc3s2)CCN1S(=O)(=O)c1ccc(C(F)(F)F)s1 [Example 947, (R)-4-(5-chloro-thiazolo[4,5-d]pyrimidin-2-yl)-1-(5-trifluoromethyl-thiophene-2-sulfonyl)-piperazine-2-carboxylic acid 4-trifluoromethoxy-benzylamide] | < 100 | < 100 |
| COC(=O)c1cc(=O)nc2sc(N3CCN(S(=O)(=O)c4ccc(OC(F)(F)F)cc4)[C@@H](C(=O)NCc4ccc(OC(F)(F)F)cc4)C3)nn12 [Example 948, 7-oxo-2-[(R)-4-(4-trifluoromethoxy-benzenesulfonyl)-3-(4-trifluoromethoxy-benzylcarbamoyl)-piperazin-1-yl]-7H-[1,3,4]thiadiazolo[3,2-a]pyrimidine-5-carboxylic acid methyl ester] | < 100 | < 100 |
| CCc1ncc2sc(N3CCN(S(=O)(=O)c4ccc(OC(F)(F)F)cc4)[C@@H](C(=O)NCc4ccc(OC(F)(F)F)cc4)C3)nc2n1 [Example 949, (R)-4-(5-ethyl-thiazolo[4,5-d]pyrimidin-2-yl)-1-(4-trifluoromethoxy-benzenesulfonyl)-piperazine-2-carboxylic acid 4-trifluoromethoxy-benzylamide] | < 100 | < 100 |
| CCc1ncc2sc(N3CCN(S(=O)(=O)c4ccc(C(F)(F)F)cc4)[C@@H](C(=O)NCc4ccc(OC(F)(F)F)cc4)C3)nc2n1 [Example 950, (R)-4-(5-ethyl-thiazolo[4,5-d]pyrimidin-2-yl)-1-(4-trifluoromethyl-benzenesulfonyl)-piperazine-2-carboxylic acid 4-trifluoromethoxy-benzylamide] | < 100 | < 100 |
| O=C(NCc1ccc(OC(F)(F)F)cc1)[C@H]1CN(c2nn3c(C(F)(F)F)nnc3s2)CCN1S(=O)(=O)c1ccc(OC(F)(F)F)cc1 [Example 951, (R)-1-(4-trifluoromethoxy-benzenesulfonyl)-4-(3-trifluoromethyl-[1,2,4]triazolo[3,4-b][1,3,4]thiadiazol-6-yl)-piperazine-2-carboxylic acid 4-trifluoromethoxy-benzylamide] | < 100 | < 100 |
| CNc1ncc2sc(N3CCN(S(=O)(=O)c4ccc(OC(F)(F)F)cc4)[C@@H](C(=O)NCc4ccc(OC(F)(F)F)cc4)C3)nc2n1 [Example 952, (R)-4-(5-methylamino-thiazolo[4,5-d]pyrimidin-2-yl)-1-(4-trifluoromethoxy-benzenesulfonyl)-piperazine-2-carboxylic acid 4-trifluoromethoxy-benzylamide] | < 100 | < 100 |
| O=C(NCc1ccc(OC(F)(F)F)cc1)[C@H]1CN(c2nn3cnnc3s2)CCN1S(=O)(=O)c1ccc(C(F)(F)F)cc1 [Example 953, (R)-4-[1,2,4]triazolo[3,4-b][1,3,4]thiadiazol-6-yl-1-(4-trifluoromethyl-benzenesulfonyl)-piperazine-2-carboxylic acid 4-trifluoromethoxy-benzylamide] | < 100 | < 100 |
| O=C(NCc1ccc(OC(F)F)cc1)[C@H]1CN(c2nn3cnnc3s2)CCN1S(=O)(=O)c1ccc(OC(F)(F)F)cc1 [Example 954, (R)-4-[1,2,4]triazolo[3,4-b][1,3,4]thiadiazol-6-yl-1-(4-trifluoromethoxy-benzenesulfonyl)-piperazine-2-carboxylic acid 4-difluoromethoxy-benzylamide] | < 100 | < 100 |
| O=C(NCc1ccc(OC(F)F)cc1)[C@H]1CN(c2nc3nc(Cl)ncc3s2)CCN1S(=O)(=O)c1ccc(OC(F)F)cc1 [Example 955, (R)-4-(5-chloro-thiazolo[4,5-d]pyrimidin-2-yl)-1-(4-difluoromethoxy-benzenesulfonyl)-piperazine-2-carboxylic acid 4-difluoromethoxy-benzylamide] | < 100 | < 100 |
| O=C(NCc1ccc(OC(F)F)cc1)[C@H]1CN(c2nc3ncncc3s2)CCN1S(=O)(=O)c1ccc(OC(F)F)cc1 [Example 956, (R)-1-(4-difluoromethoxy-benzenesulfonyl)-4-thiazolo[4,5-d]pyrimidin-2-yl-piperazine-2-carboxylic acid 4-difluoromethoxy-benzylamide] | < 100 | < 100 |
| Cn1ncc2sc(N3CCN(S(=O)(=O)c4ccc(OC(F)(F)F)cc4)[C@@H](C(=O)NCc4ccc(OC(F)(F)F)cc4)C3)nc2c1=O [Example 957, (R)-4-(5-methyl-4-oxo-4,5-dihydro-thiazolo[4,5-d]pyridazin-2-yl)-1-(4-trifluoromethoxy-benzenesulfonyl)-piperazine-2-carboxylic acid 4-trifluoromethoxy-benzylamide] | < 100 | < 100 |
| CCN(C)c1ccc(CNC(=O)[C@H]2CN(c3nc4nc(Cl)ncc4s3)CCN2S(=O)(=O)c2ccc(OC(F)(F)F)cc2)cc1 [Example 958, (R)-4-(5-chloro-thiazolo[4,5-d]pyrimidin-2-yl)-1-(4-trifluoromethoxy-benzenesulfonyl)-piperazine-2-carboxylic acid 4-(ethyl-methyl-amino)-benzylamide] | < 100 | < 100 |
| O=C(NCc1ccc(OC(F)(F)F)cc1)[C@H]1CN(c2nc3nc(Cl)ncc3s2)CCN1S(=O)(=O)c1ccc(OC(F)(F)C(F)F)cc1 [Example 959, (R)-4-(5-chloro-thiazolo[4,5-d]pyrimidin-2-yl)-1-[4-(1,1,2,2-tetrafluoro-ethoxy)-benzenesulfonyl]-piperazine-2-carboxylic acid 4-trifluoromethoxy-benzylamide] | < 100 | < 100 |
| O=C(NCc1ccc(OC(F)(F)F)cc1)[C@H]1CN(c2nc3ncncc3s2)CCN1S(=O)(=O)c1ccc(OC(F)(F)C(F)F)cc1 [Example 960, (R)-1-[4-(1,1,2,2-tetrafluoro-ethoxy)-benzenesulfonyl]-4-thiazolo[4,5-d]pyrimidin-2-yl-piperazine-2-carboxylic acid 4-trifluoromethoxy-benzylamide] | < 100 | < 100 |
| O=C(NCc1ccc(OC(F)(F)F)cc1)[C@H]1CN(c2nc3nc(C(F)(F)F)ncc3s2)CCN1S(=O)(=O)c1ccc(OC(F)(F)F)cc1 [Example 961, (R)-1-(4-trifluoromethoxy-benzenesulfonyl)-4-(5-trifluoromethyl-thiazolo[4,5-d]pyrimidin-2-yl)-piperazine-2-carboxylic acid 4-trifluoromethoxy-benzylamide] | < 100 | < 100 |
| Nc1nc(Cl)nc2nc(N3CCN(S(=O)(=O)c4ccc(OC(F)(F)F)cc4)[C@@H](C(=O)NCc4ccc(OC(F)(F)F)cc4)C3)sc12 [Example 962, (R)-4-(7-amino-5-chloro-thiazolo[4,5-d]pyrimidin-2-yl)-1-(4-trifluoromethoxy-benzenesulfonyl)-piperazine-2-carboxylic acid 4-trifluoromethoxy-benzylamide] | < 100 | < 100 |
| O=C(NCc1ccc(OC(F)(F)F)cc1)[C@H]1CN(c2nc3nc(Cl)[nH]c(=O)c3s2)CCN1S(=O)(=O)c1ccc(OC(F)(F)F)cc1 [Example 963, (R)-4-(5-chloro-7-oxo-6,7-dihydro-thiazolo[4,5-d]pyrimidin-2-yl)-1-(4-trifluoromethoxy-benzenesulfonyl)-piperazine-2-carboxylic acid 4-trifluoromethoxy-benzylamide] | < 100 | < 100 |
